For experiment [1], the target named is T1, Sentrin-specific protease 7 (Homo sapiens, UniProt Q9BQF6).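 Also: Luminescence-based dose-response confirmation of ultra-high-throughput screening hits, measuring inhibition of SENP7.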
T1 sequence (Q9BQF6 whole entry): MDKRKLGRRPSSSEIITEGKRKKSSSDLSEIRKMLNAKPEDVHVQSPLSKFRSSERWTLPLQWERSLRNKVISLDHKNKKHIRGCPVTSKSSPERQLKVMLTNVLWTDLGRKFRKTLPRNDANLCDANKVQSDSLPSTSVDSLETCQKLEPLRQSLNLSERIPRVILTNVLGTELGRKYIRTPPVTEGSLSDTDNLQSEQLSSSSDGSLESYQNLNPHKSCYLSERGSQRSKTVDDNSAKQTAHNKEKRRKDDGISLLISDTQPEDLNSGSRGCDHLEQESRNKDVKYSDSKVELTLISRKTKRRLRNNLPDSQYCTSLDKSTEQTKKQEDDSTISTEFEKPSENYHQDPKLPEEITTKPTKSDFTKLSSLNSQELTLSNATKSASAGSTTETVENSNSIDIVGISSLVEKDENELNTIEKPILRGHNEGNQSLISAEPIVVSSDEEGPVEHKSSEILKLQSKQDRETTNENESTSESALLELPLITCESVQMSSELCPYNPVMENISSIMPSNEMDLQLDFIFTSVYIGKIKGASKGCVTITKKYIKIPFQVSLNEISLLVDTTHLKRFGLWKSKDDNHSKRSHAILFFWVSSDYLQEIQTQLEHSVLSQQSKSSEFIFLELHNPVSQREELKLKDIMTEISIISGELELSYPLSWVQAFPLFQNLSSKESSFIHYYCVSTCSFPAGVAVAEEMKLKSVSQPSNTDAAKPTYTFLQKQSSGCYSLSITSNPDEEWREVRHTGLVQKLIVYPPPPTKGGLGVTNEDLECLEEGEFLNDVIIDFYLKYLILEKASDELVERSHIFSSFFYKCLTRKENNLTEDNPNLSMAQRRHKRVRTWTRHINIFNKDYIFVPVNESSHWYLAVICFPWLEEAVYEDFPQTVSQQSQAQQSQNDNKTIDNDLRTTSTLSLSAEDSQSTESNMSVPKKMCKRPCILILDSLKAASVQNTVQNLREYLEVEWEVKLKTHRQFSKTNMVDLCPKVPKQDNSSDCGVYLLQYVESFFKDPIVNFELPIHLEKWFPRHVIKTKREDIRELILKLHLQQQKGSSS
The experiment is classed as functional.

A further experiment has as its system INS1. The experiment is described as follows: beta cell apoptosis inhibitors, cytokine rescue, dose response, luminescence, retest (AID 449756).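 Also: cell death triggered by IL-1 beta plus TNF-alpha plus IFN-gamma mixture; protective hits raise ATP signal compared with cytokine alone wells.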 The experiment is classed as functional, cell-based. The note with it: Rattus norvegicus.
Experiment [2] addresses Dual specificity protein kinase CLK2 (Homo sapiens, UniProt P49760). The experiment is classed as functional.
In experiment [3] the target is Dual specificity mitogen-activated protein kinase kinase 1 (Homo sapiens, UniProt Q02750). In words: Navigating the Kinome. Panel member name: MAP2K1. Format: functional.
Dual specificity mitogen-activated protein kinase kinase 1, sequence (Q02750 whole entry): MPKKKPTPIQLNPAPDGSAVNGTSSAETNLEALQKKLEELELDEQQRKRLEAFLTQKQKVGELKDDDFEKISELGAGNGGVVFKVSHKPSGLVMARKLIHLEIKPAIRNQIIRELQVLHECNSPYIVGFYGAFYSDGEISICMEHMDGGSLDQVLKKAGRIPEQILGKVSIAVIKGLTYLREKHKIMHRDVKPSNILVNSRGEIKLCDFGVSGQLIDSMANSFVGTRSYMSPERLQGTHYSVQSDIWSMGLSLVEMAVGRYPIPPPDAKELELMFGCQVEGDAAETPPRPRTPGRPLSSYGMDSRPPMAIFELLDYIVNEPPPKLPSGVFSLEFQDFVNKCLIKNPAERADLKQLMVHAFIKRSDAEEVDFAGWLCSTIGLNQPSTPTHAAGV
For experiment [4], the target named is ALK tyrosine kinase receptor (Homo sapiens, UniProt Q9UM73). The experiment is classed as functional.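 Also: ALK tested as one member of a kinase panel screen.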
Experiment [5] concerns the target Death-associated protein kinase 3 (Homo sapiens, UniProt O43293). Format: functional.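 Also: measured as one member of a kinome-wide profiling panel.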
The target in experiment [6] is Mitogen-activated protein kinase 8 (Homo sapiens, UniProt P45983). The experiment is classed as functional.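 Also: value comes from one member of a kinome-wide kinase profiling panel.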
Mitogen-activated protein kinase 8, sequence (P45983 whole entry): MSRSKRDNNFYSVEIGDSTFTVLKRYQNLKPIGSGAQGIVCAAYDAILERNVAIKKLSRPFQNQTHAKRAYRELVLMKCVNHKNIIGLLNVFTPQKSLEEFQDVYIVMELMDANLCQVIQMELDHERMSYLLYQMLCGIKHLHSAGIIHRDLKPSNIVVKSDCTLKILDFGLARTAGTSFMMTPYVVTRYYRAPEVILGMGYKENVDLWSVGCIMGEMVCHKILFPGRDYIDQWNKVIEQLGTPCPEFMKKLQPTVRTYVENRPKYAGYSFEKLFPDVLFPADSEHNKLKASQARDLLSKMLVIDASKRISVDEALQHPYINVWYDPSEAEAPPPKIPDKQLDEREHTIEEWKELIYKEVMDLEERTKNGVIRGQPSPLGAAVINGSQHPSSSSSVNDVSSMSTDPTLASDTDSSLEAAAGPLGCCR
The target of experiment [7] is Serine/threonine-protein kinase pim-1 (Homo sapiens, UniProt P11309). The experiment is classed as functional.
Serine/threonine-protein kinase pim-1, sequence (P11309 whole entry): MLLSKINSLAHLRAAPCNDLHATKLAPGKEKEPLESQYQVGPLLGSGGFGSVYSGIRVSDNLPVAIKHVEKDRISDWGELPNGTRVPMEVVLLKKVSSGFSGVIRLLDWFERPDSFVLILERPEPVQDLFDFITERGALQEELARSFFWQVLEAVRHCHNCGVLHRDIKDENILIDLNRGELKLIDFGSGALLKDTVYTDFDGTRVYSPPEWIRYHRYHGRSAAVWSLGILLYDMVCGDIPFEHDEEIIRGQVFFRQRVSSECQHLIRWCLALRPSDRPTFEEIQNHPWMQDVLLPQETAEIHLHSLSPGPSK
Experiment [8] has as its target High affinity nerve growth factor receptor (Homo sapiens, UniProt P04629). The experiment is classed as functional.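 Also: NTRK1 tested as one member of a kinome-wide profiling panel.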
The target in experiment [9] is Mitogen-activated protein kinase kinase kinase kinase 2 (Homo sapiens, UniProt Q12851). Format: functional.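 Also: measured as one member of a kinome-wide kinase panel, with MAP4K2 as the panel entry.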
The target of experiment [10] is Hepatocyte growth factor receptor (Homo sapiens, UniProt P08581). Format: functional.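 Also: kinase panel profiling across the kinome, with MET as the panel member.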
The target of experiment [11] is Tyrosine-protein kinase ABL1 (Homo sapiens, UniProt P00519). Format: functional.
The target of experiment [12] is Vascular endothelial growth factor receptor 2 (Homo sapiens, UniProt P35968). The experiment is classed as functional.
Vascular endothelial growth factor receptor 2, sequence (P35968 whole entry): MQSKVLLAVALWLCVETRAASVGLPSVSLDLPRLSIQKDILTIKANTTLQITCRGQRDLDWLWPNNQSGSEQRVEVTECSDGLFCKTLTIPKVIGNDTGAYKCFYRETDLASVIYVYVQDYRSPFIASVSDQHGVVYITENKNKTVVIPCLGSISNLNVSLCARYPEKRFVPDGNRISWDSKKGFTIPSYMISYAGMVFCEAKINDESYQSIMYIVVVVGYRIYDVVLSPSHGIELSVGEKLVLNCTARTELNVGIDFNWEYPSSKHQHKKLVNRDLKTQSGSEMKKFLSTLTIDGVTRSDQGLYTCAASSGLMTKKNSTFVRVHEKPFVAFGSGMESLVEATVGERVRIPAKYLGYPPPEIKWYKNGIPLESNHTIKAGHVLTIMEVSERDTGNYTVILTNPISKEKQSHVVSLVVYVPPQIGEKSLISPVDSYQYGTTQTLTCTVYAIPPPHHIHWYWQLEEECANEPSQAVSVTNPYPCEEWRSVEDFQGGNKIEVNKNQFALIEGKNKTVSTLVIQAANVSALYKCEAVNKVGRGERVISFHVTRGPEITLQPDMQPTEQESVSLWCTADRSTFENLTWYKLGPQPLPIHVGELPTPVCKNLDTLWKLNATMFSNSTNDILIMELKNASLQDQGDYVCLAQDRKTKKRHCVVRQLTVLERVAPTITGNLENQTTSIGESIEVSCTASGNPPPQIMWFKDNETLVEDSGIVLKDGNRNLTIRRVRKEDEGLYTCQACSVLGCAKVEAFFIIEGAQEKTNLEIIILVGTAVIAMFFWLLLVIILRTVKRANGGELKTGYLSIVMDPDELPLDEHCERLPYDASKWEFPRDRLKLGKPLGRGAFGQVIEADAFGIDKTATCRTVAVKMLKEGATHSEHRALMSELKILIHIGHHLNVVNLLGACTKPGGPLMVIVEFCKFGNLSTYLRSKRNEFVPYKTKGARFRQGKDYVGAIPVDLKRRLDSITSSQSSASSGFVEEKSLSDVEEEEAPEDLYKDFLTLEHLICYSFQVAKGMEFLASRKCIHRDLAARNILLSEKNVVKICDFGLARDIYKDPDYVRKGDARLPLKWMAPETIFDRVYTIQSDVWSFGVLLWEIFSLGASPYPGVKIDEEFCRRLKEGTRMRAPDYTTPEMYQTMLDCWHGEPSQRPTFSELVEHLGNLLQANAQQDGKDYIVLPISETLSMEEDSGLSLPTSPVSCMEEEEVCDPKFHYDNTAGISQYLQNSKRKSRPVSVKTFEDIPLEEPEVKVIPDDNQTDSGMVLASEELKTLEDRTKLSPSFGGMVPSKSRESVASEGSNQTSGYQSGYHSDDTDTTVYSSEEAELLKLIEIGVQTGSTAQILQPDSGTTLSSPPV
Experiment [13] addresses Rho-associated protein kinase 1 (Homo sapiens, UniProt Q13464). The experiment is classed as functional.
The target of experiment [14] is Serine/threonine-protein kinase Nek2 (Homo sapiens, UniProt P51955). The experiment is classed as functional.
Serine/threonine-protein kinase Nek2, sequence (P51955 whole entry): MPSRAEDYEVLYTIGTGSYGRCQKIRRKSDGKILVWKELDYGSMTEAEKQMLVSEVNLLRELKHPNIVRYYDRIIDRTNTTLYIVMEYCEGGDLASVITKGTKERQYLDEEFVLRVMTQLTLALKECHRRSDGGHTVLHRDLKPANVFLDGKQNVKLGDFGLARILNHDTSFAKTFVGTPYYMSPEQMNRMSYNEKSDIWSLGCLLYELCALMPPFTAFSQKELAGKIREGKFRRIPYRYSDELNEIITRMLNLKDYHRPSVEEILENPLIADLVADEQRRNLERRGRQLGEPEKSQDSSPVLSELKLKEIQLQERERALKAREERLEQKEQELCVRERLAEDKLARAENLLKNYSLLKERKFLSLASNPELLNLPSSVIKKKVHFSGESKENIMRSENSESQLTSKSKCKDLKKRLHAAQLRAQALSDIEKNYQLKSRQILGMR

The structures appear in SMILES notation. Calls of active or inactive are those of the source.

Death-associated protein kinase 3, sequence (O43293 whole entry): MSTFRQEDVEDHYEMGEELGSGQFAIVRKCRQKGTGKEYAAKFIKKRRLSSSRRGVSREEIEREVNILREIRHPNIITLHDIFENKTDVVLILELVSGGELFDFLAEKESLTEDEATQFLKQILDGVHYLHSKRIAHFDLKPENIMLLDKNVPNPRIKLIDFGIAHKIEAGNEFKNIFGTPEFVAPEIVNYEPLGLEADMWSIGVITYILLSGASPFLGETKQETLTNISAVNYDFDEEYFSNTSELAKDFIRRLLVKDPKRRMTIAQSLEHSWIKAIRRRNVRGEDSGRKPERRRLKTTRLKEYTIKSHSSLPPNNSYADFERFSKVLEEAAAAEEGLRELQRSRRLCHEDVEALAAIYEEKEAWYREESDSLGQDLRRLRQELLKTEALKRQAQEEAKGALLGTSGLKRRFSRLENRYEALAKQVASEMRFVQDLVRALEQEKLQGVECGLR
Rho-associated protein kinase 1, sequence (Q13464 whole entry): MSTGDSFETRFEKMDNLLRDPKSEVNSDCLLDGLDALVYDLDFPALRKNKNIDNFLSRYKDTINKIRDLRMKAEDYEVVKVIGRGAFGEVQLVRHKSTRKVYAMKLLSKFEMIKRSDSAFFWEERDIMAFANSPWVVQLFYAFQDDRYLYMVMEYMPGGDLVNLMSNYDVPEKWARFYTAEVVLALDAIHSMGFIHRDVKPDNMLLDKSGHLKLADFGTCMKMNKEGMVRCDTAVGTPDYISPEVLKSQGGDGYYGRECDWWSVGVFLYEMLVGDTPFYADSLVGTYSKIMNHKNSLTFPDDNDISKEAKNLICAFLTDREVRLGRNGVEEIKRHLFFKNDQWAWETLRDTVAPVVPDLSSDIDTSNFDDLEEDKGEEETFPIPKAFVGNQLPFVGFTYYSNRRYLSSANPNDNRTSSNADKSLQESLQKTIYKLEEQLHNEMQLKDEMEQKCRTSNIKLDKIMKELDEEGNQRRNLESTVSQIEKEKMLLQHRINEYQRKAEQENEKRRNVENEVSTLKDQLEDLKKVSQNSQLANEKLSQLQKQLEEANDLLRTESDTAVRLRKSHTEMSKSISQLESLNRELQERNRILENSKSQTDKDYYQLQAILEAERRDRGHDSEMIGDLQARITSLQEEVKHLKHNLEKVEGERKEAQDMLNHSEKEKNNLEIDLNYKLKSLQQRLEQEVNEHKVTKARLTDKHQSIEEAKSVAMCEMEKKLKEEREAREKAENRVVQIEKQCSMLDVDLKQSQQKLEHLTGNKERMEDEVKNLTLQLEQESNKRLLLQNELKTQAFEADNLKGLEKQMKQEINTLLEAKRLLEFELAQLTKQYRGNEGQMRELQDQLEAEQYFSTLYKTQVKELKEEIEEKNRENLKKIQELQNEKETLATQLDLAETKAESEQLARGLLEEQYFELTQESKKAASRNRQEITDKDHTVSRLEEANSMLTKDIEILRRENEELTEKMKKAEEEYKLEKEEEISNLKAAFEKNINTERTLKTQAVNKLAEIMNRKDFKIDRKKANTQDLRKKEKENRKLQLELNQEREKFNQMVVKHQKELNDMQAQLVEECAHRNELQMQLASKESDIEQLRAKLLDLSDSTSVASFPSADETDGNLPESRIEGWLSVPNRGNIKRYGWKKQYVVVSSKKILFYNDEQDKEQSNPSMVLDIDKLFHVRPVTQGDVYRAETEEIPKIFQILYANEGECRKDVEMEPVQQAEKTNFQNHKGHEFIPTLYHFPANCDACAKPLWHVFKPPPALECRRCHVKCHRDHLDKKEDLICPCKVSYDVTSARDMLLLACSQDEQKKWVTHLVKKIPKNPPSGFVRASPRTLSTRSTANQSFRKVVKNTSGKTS

On to `CCCNC(=O)c1c(N)n(CC2CCCO2)c2nc3ccccc3nc12` (stereo unspecified), for which the IC50 (in general, the concentration at which inhibition is half-maximal) in experiment [1] is 2.83 µM (active).

As for `CCc1ccc(S(=O)(=O)/N=C2\C=C(Nc3ccc(O)cc3)C(=O)c3ccccc32)cc1`, the half-maximal activity concentration (AC50) – broadly, the concentration giving half of the maximal activity seen – in the experiment on INS1 is 0.981 µM (active).

`CC(C)(C)c1cc[n+](C2=C([N-]S(=O)(=O)c3cccs3)C(=O)c3ccccc3C2=O)cc1`: the IC50 in experiment [1] is 8.77 µM (active). Besides, the AC50 in the experiment with INS1 is 2.04 µM (active).

As for `COc1c(-c2nc3ccccc3[nH]2)c(O)cc2oc(C)cc(=O)c12`, the Ki (usually a measure of affinity in units of concentration, obtained from inhibition or displacement) in [2] was > 3.98 µM (inactive); in [3], 0.631 µM (active); in experiment [4], 1.26 µM (active); in [5], 2.51 µM (active); in experiment [6], 0.631 µM (active); in [7] it was 0.398 µM (active). The Ki was 0.398 µM (active) in experiment [8]; 0.501 µM (active) in [9]; 0.126 µM (active) in [10]; 0.794 µM (active) in experiment [11]; 2.51 µM (active) in [12]; 3.16 µM (active) in experiment [13]. Besides, in experiment [14], the Ki was 0.316 µM (active).

Regarding `Cc1cc([N+](=O)[O-])cc(/C=N\NC(=O)C2COc3ccccc3O2)c1O` (stereo unspecified), the IC50 in experiment [1] was 14.5 µM (active).

For `COC(=O)c1c(N)nc2ccccn12`, the Ki in [2] is 63.1 µM (active); in experiment [3], 31.6 µM (active); in experiment [4], 25.1 µM (active); in experiment [5], 50.1 µM (active); in [6] it was 7.94 µM (active); in experiment [9] it was 50.1 µM (active). The Ki is 79.4 µM (active) in experiment [10], 100 µM (active) in [11], 25.1 µM (active) in experiment [12] and 39.8 µM (active) in [13].

As for `Cc1ccc(F)c(NC(=O)Nc2ccc(-c3cccc4[nH]nc(N)c34)cc2)c1` [LINIFANIB], the Ki in experiment [7] is > 6.31 µM (inactive); in experiment [8], > 3.16 µM (inactive); in experiment [14] it was > 3.16 µM (inactive).

Values taken from ChEMBL document CHEMBL1201862, “PubChem BioAssay data set” (2004).
